Counter-ions that a name gives are not always drawn. Like-named read-outs stand apart in the source and are kept apart here.
Assays:
[1] = test system: global histone H4 lysine 20 monomethylation (H4K20me1); assay: Global histone lysine methylation pattern in treated cells, immunoblot, H4K20me1; format: cell-based; conditions: HeLa cells, acid-extracted histones, immunoblotting
Protocol: (§1) Compounds that show low IC50 values for specific inhibition of single HKMTs were pre-selected for cell culture based toxicity and growth inhibition. HeLa cells were seeded in a concentration of 1×10^5 cell/ml in Dulbecco's modified Eagle medium supplemented with 10% Bovine serum, 2 mM glutamine, and penicillin-streptomycin solution. After 24 hours, the medium was supplemented with various compound concentrations. After an additional 48 hours, cells were harvested. Viable cells were stained with Trypan-Blue and counted. Based on the number of living cells treated with a compound in comparison to the cell number of cells treated with DMSO, a toxicity index was calculated for each compound.
(§2) Compounds with a low toxicity index were used for cell viability tests (FIG. 3). The cells harvested from this cell viability test were analyzed using two techniques. In the first technique, living cells were counted as described above and growth curves plotted for cells treated with DMSO or a given compound. (FIG. 4). In the second technique, histones were isolated from cells upon treatment of compounds, and their effect on global histone lysine methylation patterns was analyzed. Harvested cells were subjected to an acid extraction procedure for histones. […] Histones were resolved by SDS-PAGE, transferred to nitrocellulose, and analyzed by immunoblotting using histone-modification-state specific antibodies.

[2] = target: T1, PRSET-7 (Homo sapiens, UniProt Q9NQR1); assay: HKMT-inhibitor (HMT) assay, PRSET-7; format: biochemical, Mammalian; conditions: recombinant HKMT, [3H]SAM, histone octamers or oligonucleosomes, average of duplicate
T1 construct: made in house
T1 sequence (Q9NQR1 1-393): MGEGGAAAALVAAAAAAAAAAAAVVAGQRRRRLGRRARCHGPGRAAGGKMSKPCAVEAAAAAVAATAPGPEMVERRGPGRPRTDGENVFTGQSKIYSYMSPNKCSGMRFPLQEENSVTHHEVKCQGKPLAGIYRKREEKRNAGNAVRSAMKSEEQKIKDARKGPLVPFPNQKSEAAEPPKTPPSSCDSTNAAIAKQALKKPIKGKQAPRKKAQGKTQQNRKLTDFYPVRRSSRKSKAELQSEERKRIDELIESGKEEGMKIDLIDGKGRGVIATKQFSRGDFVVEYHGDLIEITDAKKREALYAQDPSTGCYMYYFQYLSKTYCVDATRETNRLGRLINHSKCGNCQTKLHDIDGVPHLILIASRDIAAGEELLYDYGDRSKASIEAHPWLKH
Protocol: (§3) Compounds were initially screened for their ability to inhibit the activity of various lysine methyltransferases in vitro using a biochemical HMT-assay. Mammalian HKMTs were produced and purified as recombinant affinity-tagged proteins using a bacterial or baculovirus expression system.
(§4) The HKMT-inhibitor assay was as follows: In a final reaction volume of 25 μl, 50-100 ng recombinant HKMT protein was incubated at 30° C. for 60 minutes in a reaction buffer containing 50 mM Tris-HCl, pH 8.5, 5 mM MgCl2, 4 mM DTT, 1 μM [^3H]-labeled S-adenosyl-L-methionine ([^3H]SAM, 82.0 Ci/mmol, 1.0 mCi/ml, Amersham Pharmacia Biotech) and 2 μg of substrate (histone octamers or oligonucleosomes). A constant HKMT protein concentration was tested against increasing amounts of compound dissolved in DMSO. As a control an HKMT-inhibitor assay was performed in the presence of 0.5 μl of DMSO (end concentration of DMSO in the reaction= 2%). The reaction was stopped by the addition of 6 μl 5×SDS sample buffer (60 mM Tris-HCl, pH 6.8, 25% glycerol, 2% SDS, 0.05% bromphenol blue, 14.4 mM 6-Mercaptoethanol), and the proteins were separated on a 12% SDS-polyacrylamide gel. Proteins were transferred onto an Immobilon-P membrane (Millipore) and visualized by Coomassie blue staining. The membrane was then sprayed with EN3HANCE (NEN) and exposed to Kodak XAR film overnight. […]

[3] = target: T2, SET7/9 (Homo sapiens, UniProt Q8WTS6); assay: HKMT-inhibitor (HMT) assay, SET7/9; format: biochemical, Mammalian; conditions: recombinant HKMT, [3H]SAM, histone octamers or oligonucleosomes, average of duplicate
T2 construct: made in house
T2 sequence (Q8WTS6 1-366): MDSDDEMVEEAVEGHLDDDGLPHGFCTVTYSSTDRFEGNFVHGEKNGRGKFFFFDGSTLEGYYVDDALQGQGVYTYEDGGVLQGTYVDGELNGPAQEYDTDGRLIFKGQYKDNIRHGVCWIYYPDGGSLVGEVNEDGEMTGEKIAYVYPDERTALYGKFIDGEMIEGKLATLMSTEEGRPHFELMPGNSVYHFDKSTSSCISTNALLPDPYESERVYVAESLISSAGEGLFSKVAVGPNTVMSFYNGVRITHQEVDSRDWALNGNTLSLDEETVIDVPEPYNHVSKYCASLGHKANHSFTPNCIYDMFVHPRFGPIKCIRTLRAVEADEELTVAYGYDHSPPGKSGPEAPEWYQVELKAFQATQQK
Protocol: as §3, §4

[4] = target: T3, G9a (Homo sapiens, UniProt Q96KQ7); assay: HKMT-inhibitor (HMT) assay, G9a; format: biochemical, Mammalian; conditions: recombinant HKMT, [3H]SAM, histone octamers or oligonucleosomes, average of duplicate
T3 construct: made in house
T3 sequence (Q96KQ7 1-1210): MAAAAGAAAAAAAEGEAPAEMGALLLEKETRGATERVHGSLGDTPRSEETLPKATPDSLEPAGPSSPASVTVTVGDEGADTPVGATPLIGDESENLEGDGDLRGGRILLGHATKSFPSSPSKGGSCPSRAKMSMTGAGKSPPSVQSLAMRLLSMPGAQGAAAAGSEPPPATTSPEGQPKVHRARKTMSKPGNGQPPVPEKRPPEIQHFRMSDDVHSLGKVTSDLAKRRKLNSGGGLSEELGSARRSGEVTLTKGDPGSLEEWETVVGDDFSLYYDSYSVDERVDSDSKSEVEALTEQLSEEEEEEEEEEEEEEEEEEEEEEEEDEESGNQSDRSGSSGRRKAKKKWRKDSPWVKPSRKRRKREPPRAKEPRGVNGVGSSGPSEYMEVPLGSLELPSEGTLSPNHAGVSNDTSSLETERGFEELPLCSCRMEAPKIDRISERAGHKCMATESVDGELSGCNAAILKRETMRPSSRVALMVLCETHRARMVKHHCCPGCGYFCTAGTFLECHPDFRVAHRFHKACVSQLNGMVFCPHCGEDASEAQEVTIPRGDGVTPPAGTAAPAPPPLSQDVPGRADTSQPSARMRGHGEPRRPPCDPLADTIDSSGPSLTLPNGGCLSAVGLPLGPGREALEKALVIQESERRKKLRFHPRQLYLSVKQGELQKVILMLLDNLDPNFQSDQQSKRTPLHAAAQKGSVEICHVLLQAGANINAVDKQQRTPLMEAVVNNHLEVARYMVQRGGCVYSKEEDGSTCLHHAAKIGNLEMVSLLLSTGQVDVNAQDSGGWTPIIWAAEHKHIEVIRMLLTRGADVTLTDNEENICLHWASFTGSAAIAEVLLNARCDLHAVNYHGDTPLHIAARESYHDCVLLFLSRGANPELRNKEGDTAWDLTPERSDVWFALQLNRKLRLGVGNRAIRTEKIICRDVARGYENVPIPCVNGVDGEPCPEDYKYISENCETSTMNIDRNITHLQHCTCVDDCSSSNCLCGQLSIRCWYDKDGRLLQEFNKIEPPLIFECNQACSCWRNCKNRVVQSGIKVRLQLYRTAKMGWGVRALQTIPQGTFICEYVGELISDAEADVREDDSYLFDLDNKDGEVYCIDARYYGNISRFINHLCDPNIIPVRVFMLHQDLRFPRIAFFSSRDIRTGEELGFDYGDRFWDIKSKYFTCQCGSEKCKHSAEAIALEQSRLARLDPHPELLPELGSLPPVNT
Protocol: as §3, §4

[5] = test system: H3K27me3; assay: Global histone lysine methylation pattern in treated cells, immunoblot, other marks (H3K27me3); format: cell-based; conditions: HeLa cells, acid-extracted histones, immunoblotting
Protocol: as §1, §2

[6] = target: T4, EZH2 (Homo sapiens, UniProt Q15910); assay: HKMT-inhibitor (HMT) assay, EZH2; format: biochemical, Mammalian; conditions: meaning of the pair not explained
T4 construct: made in house
Protocol: as §3
The HKMT-inhibitor assay was as follows: In a final reaction volume of 25 μl, 50-100 ng recombinant HKMT protein was incubated at 30° C. for 60 minutes in a reaction buffer containing 50 mM Tris-HCl, pH 8.5, 5 mM MgCl2, 4 mM DTT, 1 μM [^3H]-labeled S-adenosyl-L-methionine ([^3H]SAM, 82.0 Ci/mmol, 1.0 mCi/ml, Amersham Pharmacia Biotech) and 2 μg of substrate (histone octamers or oligonucleosomes). A constant HKMT protein concentration was tested against increasing amounts of compound dissolved in DMSO. As a control an HKMT-inhibitor assay was performed in the presence of 0.5 μl of DMSO (end concentration of DMSO in the reaction= 2%). The reaction was stopped by the addition of 6 μl 5×SDS sample buffer (60 mM Tris-HCl, pH 6.8, 25% glycerol, 2% SDS, 0.05% bromphenol blue, 14.4 mM 6-Mercaptoethanol), and the proteins were separated on a 12% SDS-polyacrylamide gel. Proteins were transferred onto an Immobilon-P membrane (Millipore) and visualized by Coomassie blue staining. The membrane was then sprayed with EN3HANCE (NEN) and exposed to Kodak XAR film overnight. Coomassie blue stained histone bands were cut from the membrane and subjected to scintillation counting. All assays were performed in duplicate and the average of two experiments was used for the calculation of IC50 values. Only compounds with IC50<10 μM were selected for further experiments.

[7] = first of two values printed as x/y, read-out: IC50 EZH2 (first value of cell)
[8] = second of two values printed as x/y, read-out: IC50 EZH2 (second value of cell)

T4 sequence (Q15910 whole entry, species assumed): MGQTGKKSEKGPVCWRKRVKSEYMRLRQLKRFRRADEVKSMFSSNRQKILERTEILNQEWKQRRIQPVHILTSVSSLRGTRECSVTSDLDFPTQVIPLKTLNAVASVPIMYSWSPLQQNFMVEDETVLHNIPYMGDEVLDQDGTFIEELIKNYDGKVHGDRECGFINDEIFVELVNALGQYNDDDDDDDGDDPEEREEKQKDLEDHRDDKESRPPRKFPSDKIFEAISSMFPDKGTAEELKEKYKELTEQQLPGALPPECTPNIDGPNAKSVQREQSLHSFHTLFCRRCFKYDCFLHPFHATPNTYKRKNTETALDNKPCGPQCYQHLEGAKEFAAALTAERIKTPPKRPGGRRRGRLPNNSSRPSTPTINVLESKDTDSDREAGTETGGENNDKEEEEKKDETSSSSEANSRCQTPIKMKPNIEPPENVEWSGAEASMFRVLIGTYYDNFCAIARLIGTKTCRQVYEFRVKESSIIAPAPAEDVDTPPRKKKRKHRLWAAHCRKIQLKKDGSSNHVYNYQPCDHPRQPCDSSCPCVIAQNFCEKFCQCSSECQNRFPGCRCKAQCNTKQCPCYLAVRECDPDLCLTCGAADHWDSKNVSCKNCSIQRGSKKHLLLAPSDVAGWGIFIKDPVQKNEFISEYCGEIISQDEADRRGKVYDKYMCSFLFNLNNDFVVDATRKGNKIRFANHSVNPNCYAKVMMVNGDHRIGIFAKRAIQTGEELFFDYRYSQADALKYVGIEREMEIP
T4 sequence (O75530 whole entry partner, species assumed): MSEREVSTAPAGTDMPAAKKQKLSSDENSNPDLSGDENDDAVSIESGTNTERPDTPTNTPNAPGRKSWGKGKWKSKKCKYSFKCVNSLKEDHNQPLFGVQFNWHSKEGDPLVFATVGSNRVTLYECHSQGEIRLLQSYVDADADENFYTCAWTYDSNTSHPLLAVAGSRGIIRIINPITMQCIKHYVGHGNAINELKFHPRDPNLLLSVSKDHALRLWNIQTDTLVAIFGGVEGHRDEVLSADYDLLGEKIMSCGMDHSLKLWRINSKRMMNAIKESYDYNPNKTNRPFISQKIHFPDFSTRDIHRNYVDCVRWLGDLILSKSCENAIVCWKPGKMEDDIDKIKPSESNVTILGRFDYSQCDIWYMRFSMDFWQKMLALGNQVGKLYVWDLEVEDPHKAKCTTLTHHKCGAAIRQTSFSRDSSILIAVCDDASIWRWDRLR
T4 sequence (Q15022 whole entry partner, species assumed): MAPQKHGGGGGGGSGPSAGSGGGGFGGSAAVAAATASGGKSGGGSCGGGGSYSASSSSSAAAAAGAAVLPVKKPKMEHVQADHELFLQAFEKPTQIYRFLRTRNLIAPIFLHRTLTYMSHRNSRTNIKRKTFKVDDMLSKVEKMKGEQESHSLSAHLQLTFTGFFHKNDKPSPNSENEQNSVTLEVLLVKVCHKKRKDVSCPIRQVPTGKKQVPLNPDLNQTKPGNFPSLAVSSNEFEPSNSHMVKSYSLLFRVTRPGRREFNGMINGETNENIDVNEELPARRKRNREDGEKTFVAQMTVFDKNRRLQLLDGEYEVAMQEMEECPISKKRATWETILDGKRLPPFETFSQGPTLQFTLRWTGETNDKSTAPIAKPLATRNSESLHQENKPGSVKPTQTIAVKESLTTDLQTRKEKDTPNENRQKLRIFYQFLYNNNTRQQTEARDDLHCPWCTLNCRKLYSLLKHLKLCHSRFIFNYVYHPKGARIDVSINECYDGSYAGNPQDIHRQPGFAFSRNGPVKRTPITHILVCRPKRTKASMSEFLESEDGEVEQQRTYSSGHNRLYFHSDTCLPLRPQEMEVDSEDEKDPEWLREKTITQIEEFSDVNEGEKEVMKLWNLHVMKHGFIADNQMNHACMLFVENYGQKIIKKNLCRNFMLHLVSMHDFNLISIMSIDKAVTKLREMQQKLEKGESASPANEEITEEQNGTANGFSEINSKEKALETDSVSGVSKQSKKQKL

Row | SMILES | global histone H4 lysine 20 monomethylation (H4K20me1) [1] | IC50 [2] | IC50 [3] | IC50 [4] | other histone methylation marks (e.g. H3K27me3) [5] | IC50 [6, 7] | IC50 [6, 8] | melting point
1 | Cc1cc(O)c(C(C)C)cc1C1(c2cc(C(C)C)c(O)cc2C)OC(=O)c2ccccc21 [Thymolphthalein, thymolphthalein] | reproducible reduction | 9 µM | > 1450 µM | > 1450 µM | not affected | 25 µM | 400 µM | 
2 | Nc1cc(S(=O)(=O)O)cc2cc(S(=O)(=O)O)cc(O)c12 [H-acid] |  | 3.8 µM | > 1380 µM | > 500 µM |  | 3 µM | > 1000 µM | 
3 | Nc1ccc2c(O)cc(C(=O)O)cc2c1 (as salt: hydrochloride) [Compound 1a, 7-amino-4-hydroxy-2-naphthoic acid] |  |  |  |  |  |  |  | > 250 °C (dec.)
4 | CCOC(=O)c1cc2c3c(cccc3c1)NC(=O)O2 [Compound 6, ethyl 2,3-dihydro-2-oxonaphtho[1,8-de][1,3]oxazine-8-carboxylate] |  |  |  |  |  |  |  | > 250 °C (dec.)
